Data: patent US5498522A, “Methods for the use of spermidine/spermine N^1 -acetyltransferase as a prognostic indicator and/or a tumor response marker” (priority 1993, dated 1996)
Values joined by “and” are separate entries in the source; they are usually repeats but may differ in a detail not shown here. Equal values may be shown once. “Also recorded” adds a separate entry of the source.

Legend:
natural polyamine pools = conditions: in-vitro; cited from earlier work
[1] = tested on: PANUT-3 human melanoma xenografts; experiment: antitumor response against PANUT-3 human melanoma xenografts in mice; type: in vivo
Description: (§1) […] where 1 represents length; w--width; and h--height. Tumor sizes were monitored 2 times/week until the median volume (V=0.4(a^2 ×b) where a is the smaller of the two perpendicular tumor diameters). As an indication of drug toxicity, animal weights were also recorded at the time of tumor volume measurement. Statistical analyses were performed on mouse tumor size and weight parameters by using the Mann-Whitney test.
(§2) Tumor growth suppression was measured by plotting the mean tumor volume versus the number of days post-inoculation with polyamine analog (growth curve analyses). Suppression is determined by comparison with the growth of untreated tumors (%T/C). More specifically,: %T/C is (treated tumor volume minus pretreatment volume) divided by (control tumor volume minus pretreatment volume)×100. Typically this is measured either when the control tumor volume reaches 1000 mm^3, or at the last day of treatment.
(§3) Tumor regression is measured as a percentage representing the average percentage of decrease in tumor volume from the largest pretreatment volume value.
(§4) Repression of regrowth is represented as regrowth delay, determined as the number of days following cessation of treatment when median group tumor volume exceeds 200 mm^3 (an arbitrary indication of regrowth which was determined statistically).
For example, human melanoma cell lines including MALME-3, SH-1, PANUT-3 and LOX were evaluated for the level of SSAT induction and potency of antitumor response following BENSPM treatment (80 mg/kg 3×/day×6 days) using the methodology previously described in this embodiment. […] The baseline of SSAT activity in the control mice (2 examined of 7 mice) ranged from 50 to 90 pmol/min/mg. […] Note that following BENSPM treatment (as discussed above in the context of Tables 4 and 5), suppression of tumor growth of PANUT-3, unlike suppression of MALME-3 growth, lasted for only about 12 days. Further, the levels of SSAT in PANUT-3 at two weeks post-treatment, approached the levels in the control and correlated with the loss of antitumor activity.

[2] = tested on: S-adenosylmethionine decarboxylase (SAMDC); experiment: SAMDC activity in human melanoma xenografts in-vivo
[3] = tested on: A121 human ovarian adenocarcinoma xenografts; experiment: antitumor response against A121 human ovarian adenocarcinoma xenografts in mice; type: in vivo
Description: as §1, §2, §3, §4
Cells from malignant solid human tumor tissue types, other than melanoma, have also been evaluated for their responsiveness to polyamine analog treatment including clonal cell lines A121 (human ovarian adenocarcinoma),A549 (lung adenocarcinoma), and HT29 colon adenocarcinoma). These cell lines were evaluated for the level of SSAT induction and potency of antitumor response following BENSPM treatment (80 mg/kg 3×/day×6 days) in-vivo using the methodology previously described in this embodiment. Also, dose of BENSPM was compared (80 mg/kg versus 40 mg/kg). The baseline of SSAT activity in the control mice (2 of 7 mice) ranged from 40 to 90 pmol/min/mg. Tumor cells from the human xenografts A121, A549, and HT29 were removed from two mice of each treated group of seven mice containing the respective xenograft at 16 hours following the final BENSPM injection to evaluate the level of induction of SSAT activity. […] The response to the polyamine analog was heterotypic. […] As discussed previously, it is not known whether the heterotypic antitumor response may be due to either the individual properties of the clonal line or the particular solid tumor type.

[4] = A121, BENSPM 80 mg/kg 3x/d × 6d

Compound	natural polyamine pools (natural polyamine pools)	tumor regression, PANUT-3 versus MALME-3 ([1]; BENSPM 80 mg/kg 3×/day×6 days)	% T/C at 1 g ([1]; PANUT-3, BENSPM at 80 mg/kg)	Tumor Regression ([1]; PANUT-3, BENSPM at 80 mg/kg)	Regrowth Delay ([1]; PANUT-3, BENSPM at 80 mg/kg, dt 7 days)	No Regrowth ([1]; PANUT-3, BENSPM at 80 mg/kg, for duration of experiment)	duration of suppression of tumor growth ([1]; PANUT-3 xenograft, following BENSPM treatment)	SAMDC levels ([2]; MALME-3 study)	SAMDC levels ([2]; PANUT-3 study)	% T/C at 1 g [3, 4]	Tumor Regression [3, 4]	Regrowth Delay ([3]; A121, BENSPM 80 mg/kg 3x/d × 6d, dt 5 days)	No Regrowth ([3]; A121, BENSPM 80 mg/kg 3x/d × 6d, for duration of experiment)	total growth suppression period ([3]; A121 xenograft, 80 mg/kg 3×/day×6 days)
CCNCCCNCCCCNCCCNCC [BESPM, N^1,N^12-bis(ethyl)spermine]	deplete natural polyamine pools													
CCNCCCNCCCNCCCNCC [BENSPM, N^1,N^11 -bis(ethyl)norspermine]		significantly more tumor regression	10%	Major	2.7 × dt	0/5	about 12 days	ODC and SAMDC levels were not suppressed	ODC and SAMDC levels were not suppressed	< 0%	showed tumor regression; also recorded: Present	3.2 × dt	2 of 5 and 2/5	16 days
